Test results as given in publication PMC5952519, “Screening a repurposing library, the Medicines for Malaria Venture Stasis Box, against Schistosoma mansoni” (Parasites & Vectors, 2018).
“Also recorded” adds a separate entry of the source. Read-outs that look alike come from different tables or passages of the source.

Legend:
[1] = test system: S. mansoni; assay: In vivo efficacy in mice harbouring a chronic S. mansoni infection (worm burden); set-up: species or system Schistosoma mansoni; conditions: for inhibition in vivo at 200 mg/kg: Schistosoma mansoni
Experimental: (§1) Three weeks old NMRI female mice were used (Charles Rivers, Germany) for in vivo drug efficacy studies. The animals were kept in groups of ten with constant access to food and water. After one week of habituation, mice were sub-cutaneously injected a suspension containing 100 S. mansoni cercariae in phosphate-buffered saline (PBS). The drugs (200 mg/kg single dose) were administered seven weeks post-infection by oral gavage to groups of 4 mice. They were dissolved in tap water with Tween80/ethanol (10%, 70:30). Untreated mice (n = 10) served as control and were dissected 7 weeks post-infection. Treated mice (n = 40) were euthanized with CO2 and dissected between 16 to 18 days post-drug administration. The worms were then collected, sexed and counted.
(§2) For in vitro assays, the average viability scores between replicates (or individual adult worms) were normalised to the controls and converted into percentage activity (or effect). Drug IC50 values (for NTS or adult worms) were calculated by computing different dose-effect values using CompuSyn2 software (ComboSyn Inc., 2007). The linear correlation coefficient (r) reflects the experimental fit. In this study, r-values > 0.70 were considered acceptable. […] The selectivity index (SI) of each drug was calculated by dividing the CC50 measured on the L6 cells by the IC50 measured on the parasites. For in vivo studies, as previously described, the worm burden reduction [%] was determined by comparing the worm burden of treated and untreated mice. For statistical significance a Kruskal-Wallis test was employed (R version 3.2.2).

[2] = test system: adult S. mansoni; assay: In vitro assay on adult S. mansoni worms, viability scoring by microscopy; assay type: cell-based; conditions: Schistosoma mansoni, read-out: Adult IC50
Excerpt: (§3) The S. mansoni (Liberian strain) life-cycle, is maintained in-house at the Swiss Tropical and Public Health Institute (Swiss TPH), as described before. Biomphalaria glabrata were infected with 6 to 8 S. mansoni miracidia. They were kept in pond water under natural light, temperature and humidity conditions until the infectious stage, the cercariae, started to shed. The cercariae were mechanically transformed to schistosomula, the NTS, using a procedure adapted from Milligan & Jolly. NTS were incubated (37 °C, 5% CO2) until use for 12 to maximum 24 h in M199 medium supplemented with FCS and antibiotics. Adult S. mansoni of both sexes were collected by dissecting the intestinal veins of mice euthanized 7 weeks post-infection. All the adult worms recovered were incubated for maximum one week until use in RPMI medium supplemented with FCS and penicillin-streptomycin.
(§4) Hit compounds identified on NTS progressed into testing on adult worms. Females, males and pairs (3 to 5 worms per well) were exposed to the drug dilution in supplemented RPMI medium. The assays were performed in duplicate in 24-wells plates (Eppendorf AG, Hamburg, Germany). […] Each IC50 assay was repeated once. These assays were repeated for the lead compounds in presence of albumin (BSA) at the human physiological concentration of 45 g/l (AlbuMAX II, Gibco). For all in vitro assays (NTS and adults), negative controls containing the highest concentration of DMSO were included. Worms incubated with praziquantel served as positive controls. The parasites were evaluated under an inverted optical microscope over 3 days after drug exposure. Their movement and morphology were assessed and scored as described previously.
as §2, with “Drug IC50 values (for NTS or adult worms) were calculated by computing different dose-effect values using CompuSyn2 software (ComboSyn Inc., 2007).” left out

[3] = test system: adult S. mansoni; assay: In vitro assay on adult S. mansoni worms in albumin-enriched medium (45 g/l); assay type: cell-based; conditions: Schistosoma mansoni, read-out: Adult IC50 with albumin
Experimental: as §4
as §2, with “Drug IC50 values (for NTS or adult worms) were calculated by computing different dose-effect values using CompuSyn2 software (ComboSyn Inc., 2007).” left out

[4] = test system: MRC5 cells; conditions: read-out: MRC5 cells CC50; ref provided by MMV; cited from earlier work
[5] = Cytotoxicity assay on L6 cells (resazurin / Alamar Blue); assay type: cell-based; conditions: rat
Experimental: Rat skeletal myoblast L6 cells (2 × 10^4 cells/ml) were exposed to serial dilutions of the 11 lead compounds (1:3, range: 0.37–90 μM). Podophyllotoxin (PPT, 1:3, range: 2 × 10^-4 –0.05 μg/ml) was used as a positive control. After a 72-hour incubation, resazurin dye (Alamar Blue) was added to the plates. […] Each drug was tested in duplicate and each assay was repeated once.
as §2

[6] = test system: newly transformed schistosomula (NTS) of Schistosoma mansoni; assay: In vitro assay on newly transformed schistosomula (NTS), viability scoring by microscopy; assay type: cell-based
Excerpt: as §3
For in vitro screening on NTS, the parasite suspension was adjusted to 50 NTS/100 μl in supplemented M199 medium and added to the drug dilutions in 96-wells plates (Eppendorf AG, Hamburg, Germany). NTS were initially exposed to a drug concentration of 10 μM (0.1% DMSO). Each drug was tested in duplicate.
as §4, with “Germany). […] Each assay on NTS was performed in triplicate with serial drug dilutions (1:2, range: 10–0.16 μM) and repeated once.” for “Germany).”
as §2

[7] = Survival of treated infected mice in the in vivo study; conditions: single 200 mg/kg oral dose
Experimental: as §1
Eight compounds had no effect on the worm burden in infected mice (worm burden reduction < 36%).

[8] = mice, single 200 mg/kg oral dose, 49-day-old adult infection, read-out: WBR (worm burden reduction)
[9] = mice, single 200 mg/kg oral dose, 49-day-old adult infection
[10] = Schistosoma mansoni, 24 h; read-out: NTS IC50
[11] = Schistosoma mansoni, 48 h; read-out: NTS IC50
[12] = 72-hour incubation, read-out: L6 cells CC50
[13] = po, read-out: WBR (worm burden reduction), mice, single 200 mg/kg oral dose, 49-day-old adult infection

SMILES	inhibition in vivo at 200 mg/kg [1, 8] [%]	Mean worm burden ± SD [1, 9]	IC50 ([2]; 24 h, standard medium) [µM]	IC50 ([2]; 48 h, standard medium) [µM]	IC50 ([3]; 24 h, albumin 45 g/l) [µM]	IC50 ([3]; 48 h, albumin 45 g/l) [µM]	IC50 ([3]; 72 h, albumin 45 g/l) [µM]	CC50 [4] [µM]	CC50 at 72 h [5] [µM]	IC50 [6, 10] [µM]	IC50 [6, 11] [µM]	CC50 at 72 h [5, 12] [µM]	also measured
CNCc1ccc(C)c(NC(=O)c2ccc(Nc3nc(-c4ccccc4)c4ccccc4n3)cc2)c1 [MMV690732]	0	47.5 ± 24.3	4.9	2.9	62.8	181	54.1	1.9	2.3	29.5	6.3	–	–
COc1ccc(NC(=O)c2ccc(-c3ccc(-c4noc(C)n4)cc3C)cc2)cc1N1CCN(C)CC1 [MMV003452]	12.2	40.5 ± 17.2	1.7	3	22.6	–	7.5	1.9	3.7	4.4	2.2	–	–
CC#CC(=O)Nc1ccc2ncnc(Nc3cccc(Br)c3)c2c1 [MMV690684]	10	41.5 ± 16.5	4.9	4.7	76.8	14.4	7.7	7	7	4	3.1	–	–
O=C(O)Cc1cccc(OCCCN(Cc2cccc(C(F)(F)F)c2Cl)CC(c2ccccc2)c2ccccc2)c1 [MMV690466]	35.9	10.3 ± 6.9	2.9	2.3	18.1	89.7	47.6	8.4	–	14.6	3.8	1.6	effect on NTS at 10 μM ([6]; 10 μM, 48 h): high effect; also recorded: high activity
CC[C@@H]1C(=O)N(C)c2cnc(Nc3ccc(C(=O)NC4CCN(C)CC4)cc3OC)nc2N1C1CCCC1 [MMV690787]	0	48.3 ± 21.6	–	–	–	–	–	0.1	–	–	–	–	–
CC(C)(Cc1c[nH]c2ccc(Cl)cc12)NCCOc1ccccc1OCC1CC1 [MMV690599]	–	44.7 ± 29.6	–	–	–	–	–	2	–	10.5	3.5	3.4	inhibition in vivo at 200 mg/kg [1, 13]: 3.2%; IC50 ([2]; 48 h): 3.3 µM; IC50 ([3]; 24 h): 23.6 µM; IC50 ([3]; 48 h): 19.1 µM; IC50 ([3]; 72 h): 15.9 µM
CCOc1cc2ncc(C#N)c(Nc3ccc(F)c(Cl)c3)c2cc1NC(=O)/C=C/CN(C)C [MMV690765, Pelitinib]	0	84.0 ± 56.4	4.2	3.4	652	226	124	0.7	11.8	914	> 1	–	–
Nc1nc2ccc(Cl)cc2c2nc(-c3ccco3)nn12 [MMV001539]	–	–	28.2	12.3	–	–	–	16	–	12.7	11	2.9	–
Cc1ccc(C(=O)N(CCCN)[C@@H](c2nc3cc(Cl)ccc3c(=O)n2Cc2ccccc2)C(C)C)cc1 [MMV690646, Ispinesib]	–	–	3.7	–	32	122	33.6	0.2	–	3	1.1	–	death of treated mice [7]: died prematurely; also recorded: death of the mice
Fc1ccc(Cl)cc1-c1nc(Nc2ccncc2)c2nccnc2n1 [MMV690534]	–	7.8 ± 7.5	–	–	–	–	–	12.4	–	–	–	–	inhibition in vivo at 200 mg/kg [1, 13]: > 50%; IC50 ([2]; 24 h): 17.4 µM; IC50 ([2]; 48 h): 19.3 µM; CC50 at 72 h ([5]; L6 skeletal myoblast cells, 72-hour incubation, read-out: L6 cells CC50): 74.5 µM; IC50 ([6]; Schistosoma mansoni, 24 h, read-out: NTS IC50): 11.8 µM; IC50 ([6]; Schistosoma mansoni, 48 h, read-out: NTS IC50): 14.3 µM
